Patent US20240174679A1, “HETEROAROYL AMIDES AS LRRK2 INHIBITORS, PHARMACEUTICAL COMPOSITIONS, AND USES THEREOF” (MERCK SHARP & DOHME LLC, priority 2021, published 2024)

Molecular target: GST tagged truncated human mutant G2019S LRRK2 (Homo sapiens (Human), UniProt Q5S007, G2019S)
Test: LRRK2 Km ATP LanthaScreen Assay
Assay type: biochemical
Conditions: 134 μM ATP (Km ATP), LRRKtide substrate, negative log of mean IC50 (molar)
How it was run: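 Truncated GST-tagged G2019S LRRK2 (1.25 nM enzyme solution) was preincubated with compound for 15 min at rt, then reacted for 90 min with fluorescein-LRRKtide and 134 μM ATP (Km) in Tris pH 8.5/MgCl2 buffer. After an EDTA stop, TR-FRET used a Tb anti-pERM antibody (520/495 nm ratio). IC50 came from a 4-parameter fit and is reported as pIC50, mean of several runs.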

Chain of GST tagged truncated human mutant G2019S LRRK2 (Q5S007 970-2527 G2019S): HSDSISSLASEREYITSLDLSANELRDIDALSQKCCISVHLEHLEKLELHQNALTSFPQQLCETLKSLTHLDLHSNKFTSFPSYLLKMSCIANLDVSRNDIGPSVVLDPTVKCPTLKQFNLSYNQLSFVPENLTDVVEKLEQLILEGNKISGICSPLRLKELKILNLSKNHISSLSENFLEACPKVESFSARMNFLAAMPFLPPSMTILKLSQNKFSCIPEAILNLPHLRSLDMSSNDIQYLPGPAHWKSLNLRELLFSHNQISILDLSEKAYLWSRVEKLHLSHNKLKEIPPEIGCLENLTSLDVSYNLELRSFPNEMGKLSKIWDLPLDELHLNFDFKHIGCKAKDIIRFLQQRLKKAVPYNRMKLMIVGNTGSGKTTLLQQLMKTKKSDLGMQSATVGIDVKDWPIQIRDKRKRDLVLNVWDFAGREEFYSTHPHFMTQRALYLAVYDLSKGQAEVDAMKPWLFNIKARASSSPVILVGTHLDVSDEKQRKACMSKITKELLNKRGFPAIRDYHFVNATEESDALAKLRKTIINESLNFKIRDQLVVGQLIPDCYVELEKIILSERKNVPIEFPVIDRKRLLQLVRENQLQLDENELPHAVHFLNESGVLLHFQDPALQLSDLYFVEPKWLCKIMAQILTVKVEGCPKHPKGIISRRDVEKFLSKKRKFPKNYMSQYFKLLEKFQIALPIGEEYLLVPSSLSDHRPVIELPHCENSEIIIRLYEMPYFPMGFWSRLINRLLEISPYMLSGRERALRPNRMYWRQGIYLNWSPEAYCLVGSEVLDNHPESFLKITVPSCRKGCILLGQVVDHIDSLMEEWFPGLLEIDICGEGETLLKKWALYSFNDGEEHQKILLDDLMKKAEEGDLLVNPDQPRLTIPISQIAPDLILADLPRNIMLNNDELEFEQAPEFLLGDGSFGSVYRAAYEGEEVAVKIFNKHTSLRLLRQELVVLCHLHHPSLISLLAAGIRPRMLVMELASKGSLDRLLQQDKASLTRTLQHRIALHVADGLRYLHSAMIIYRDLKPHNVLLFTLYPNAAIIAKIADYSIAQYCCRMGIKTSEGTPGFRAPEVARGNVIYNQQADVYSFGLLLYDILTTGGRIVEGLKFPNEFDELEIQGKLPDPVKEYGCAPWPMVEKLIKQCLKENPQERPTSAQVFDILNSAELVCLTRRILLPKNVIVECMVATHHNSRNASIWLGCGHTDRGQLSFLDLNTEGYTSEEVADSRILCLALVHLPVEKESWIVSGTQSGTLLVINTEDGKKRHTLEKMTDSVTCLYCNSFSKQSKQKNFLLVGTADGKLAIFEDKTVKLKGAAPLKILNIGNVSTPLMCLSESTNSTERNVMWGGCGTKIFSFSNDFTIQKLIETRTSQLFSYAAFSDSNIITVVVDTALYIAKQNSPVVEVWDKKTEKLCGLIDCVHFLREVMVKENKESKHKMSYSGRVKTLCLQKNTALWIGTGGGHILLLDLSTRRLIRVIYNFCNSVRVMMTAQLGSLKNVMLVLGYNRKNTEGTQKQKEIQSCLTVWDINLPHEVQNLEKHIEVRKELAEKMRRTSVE

For `O=C(Nc1cn(CC2CCCO2)nc1C(F)F)c1csc(-c2cn[nH]c2)n1` (centres unmarked) [Example 7-12, N-[3-(difluoromethyl)-1-(tetrahydrofuran-2-ylmethyl)-1H-pyrazol-4-yl]-2-(1H-pyrazol-4-yl)-1,3-thiazole-4-carboxamide], the “LRRK2 pIC50” value was 7.68.

For `O=C(Nc1cnn(CC2CCCO2)c1)c1csc(-c2cn[nH]c2)n1` (centres unmarked) [Example 7-13, 2-(1H-pyrazol-4-yl)-N-[1-(tetrahydrofuran-2-ylmethyl)-1H-pyrazol-4-yl]-1,3-thiazole-4-carboxamide], the “LRRK2 pIC50” value was 6.84.

`COc1nn(CC2CC2)cc1NC(=O)c1csc(-c2cn[nH]c2)n1` [Example 7-14, N-[1-(cyclopropylmethyl)-3-methoxy-1H-pyrazol-4-yl]-2-(1H-pyrazol-4-yl)-1,3-thiazole-4-carboxamide] was tested, and the “LRRK2 pIC50” value was 7.92.

In the case of `O=C(Nc1cnn(CCN2CCNCC2)c1)c1csc(-c2cn[nH]c2)n1` [Example 7-15, N-{1-[2-(piperazin-1-yl)ethyl]-1H-pyrazol-4-yl}-2-(1H-pyrazol-4-yl)-1,3-thiazole-4-carboxamide], the “LRRK2 pIC50” value is reported as 6.36.

`COc1nn(CC2CCOCC2)cc1NC(=O)c1csc(-c2cn[nH]c2)n1` [Example 7-16, N-[3-methoxy-1-(tetrahydro-2H-pyran-4-ylmethyl)-1H-pyrazol-4-yl]-2-(1H-pyrazol-4-yl)-1,3-thiazole-4-carboxamide] was tested, and the “LRRK2 pIC50” value was 7.25.

`O=C(Nc1cnn(Cc2ccc(F)cc2)c1)c1csc(-c2cn[nH]c2)n1` [Example 7-17, N-[1-(4-fluorobenzyl)-1H-pyrazol-4-yl]-2-(1H-pyrazol-4-yl)-1,3-thiazole-4-carboxamide] was tested, and the “LRRK2 pIC50” value was 7.76.

In the case of `CC(C)n1cc(NC(=O)c2csc(-c3cn[nH]c3)n2)c(C(F)F)n1` [Example 7-18, N-[3-(difluoromethyl)-1-(1-methylethyl)-1H-pyrazol-4-yl]-2-(1H-pyrazol-4-yl)-1,3-thiazole-4-carboxamide], the “LRRK2 pIC50” value is reported as 7.72.

`COc1nn(CC2CCC2)cc1NC(=O)c1csc(-c2cn[nH]c2)n1` [Example 7-19, N-[1-(cyclobutylmethyl)-3-methoxy-1H-pyrazol-4-yl]-2-(1H-pyrazol-4-yl)-1,3-thiazole-4-carboxamide] was tested, and the “LRRK2 pIC50” value was 7.80.

With `COc1nn(CC(F)F)cc1NC(=O)c1csc(-c2cn[nH]c2)n1` [Example 7-20, N-[1-(2,2-difluoroethyl)-3-methoxy-1H-pyrazol-4-yl]-2-(1H-pyrazol-4-yl)-1,3-thiazole-4-carboxamide] the “LRRK2 pIC50” value was 7.58.

`COCCn1cc(NC(=O)c2csc(-c3cn[nH]c3)n2)c(OC)n1` [Example 7-21, N-[3-methoxy-1-(2-methoxyethyl)-1H-pyrazol-4-yl]-2-(1H-pyrazol-4-yl)-1,3-thiazole-4-carboxamide] was tested, and the “LRRK2 pIC50” value was 6.57.

With `COCCn1cc(NC(=O)c2csc(-c3cn[nH]c3)n2)cn1` [Example 7-22, N-[1-(2-methoxyethyl)-1H-pyrazol-4-yl]-2-(1H-pyrazol-4-yl)-1,3-thiazole-4-carboxamide] the “LRRK2 pIC50” value was 7.00.

`CC(C)Cn1cc(NC(=O)c2csc(-c3cn[nH]c3)n2)c(C(F)F)n1` [Example 7-23, N-[3-(difluoromethyl)-1-(2-methylpropyl)-1H-pyrazol-4-yl]-2-(1H-pyrazol-4-yl)-1,3-thiazole-4-carboxamide] was tested, and the “LRRK2 pIC50” value was 7.59.

In the case of `O=C(Nc1cnn(Cc2ccncc2)c1)c1csc(-c2cn[nH]c2)n1` [Example 7-24, 2-(1H-pyrazol-4-yl)-N-[1-(pyridin-4-ylmethyl)-1H-pyrazol-4-yl]-1,3-thiazole-4-carboxamide], the “LRRK2 pIC50” value is reported as 7.30.

For `COc1nn(CC2(C#N)CC2)cc1NC(=O)c1csc(-c2cn[nH]c2)n1` [Example 7-25, N-{1-[(1-cyanocyclopropyl)methyl]-3-methoxy-1H-pyrazol-4-yl}-2-(1H-pyrazol-4-yl)-1,3-thiazole-4-carboxamide], the “LRRK2 pIC50” value was 7.70.

In the case of `O=C(Nc1cnn(C[C@H]2CCNC2)c1)c1csc(-c2cn[nH]c2)n1` [Example 7-26, 2-(1H-pyrazol-4-yl)-N-(1-{[(3S)-pyrrolidin-3-yl]methyl}-1H-pyrazol-4-yl)-1,3-thiazole-4-carboxamide], the “LRRK2 pIC50” value is reported as 6.84.

For `N#CCn1cc(NC(=O)c2csc(-c3cn[nH]c3)n2)c(C(F)F)n1` [Example 7-27, N-[1-(cyanomethyl)-3-(difluoromethyl)-1H-pyrazol-4-yl]-2-(1H-pyrazol-4-yl)-1,3-thiazole-4-carboxamide], the “LRRK2 pIC50” value was 7.50.

With `N#CC1(Cn2cc(NC(=O)c3csc(-c4cn[nH]c4)n3)cn2)CCNCC1` [Example 7-28, N-{1-[(4-cyanopiperidin-4-yl)methyl]-1H-pyrazol-4-yl}-2-(1H-pyrazol-4-yl)-1,3-thiazole-4-carboxamide] the “LRRK2 pIC50” value was 6.71.

With `O=C(Nc1cn(CC2CC2(F)F)nc1C(F)F)c1csc(-c2cn[nH]c2)n1` (centres unmarked) [Example 7-29, N-{1-[(2,2-difluorocyclopropyl)methyl]-3-(difluoromethyl)-1H-pyrazol-4-yl}-2-(1H-pyrazol-4-yl)-1,3-thiazole-4-carboxamide] the “LRRK2 pIC50” value was 7.78.

In the case of `O=C(Nc1cnn(C[C@@H]2CCNC2)c1)c1csc(-c2cn[nH]c2)n1` [Example 7-30, 2-(1H-pyrazol-4-yl)-N-(1-{[(3R)-pyrrolidin-3-yl]methyl}-1H-pyrazol-4-yl)-1,3-thiazole-4-carboxamide], the “LRRK2 pIC50” value is reported as 6.25.

For `CC(C#N)n1cc(NC(=O)c2csc(-c3cn[nH]c3)n2)c(C(F)F)n1` (centres unmarked) [Example 7-31, N-[1-(1-cyanoethyl)-3-(difluoromethyl)-1H-pyrazol-4-yl]-2-(1H-pyrazol-4-yl)-1,3-thiazole-4-carboxamide], the “LRRK2 pIC50” value was 7.40.

`O=C(Nc1cnn(CCC2CCNCC2)c1)c1csc(-c2cn[nH]c2)n1` [Example 7-32, N-{1-[2-(piperidin-4-yl)ethyl]-1H-pyrazol-4-yl}-2-(1H-pyrazol-4-yl)-1,3-thiazole-4-carboxamide] was tested, and the “LRRK2 pIC50” value was 7.38.

`O=C(Nc1cn(CC2CC2)nc1C(F)F)c1csc(-c2cn[nH]c2)n1` [Example 7-33, N-[1-(cyclopropylmethyl)-3-(difluoromethyl)-1H-pyrazol-4-yl]-2-(1H-pyrazol-4-yl)-1,3-thiazole-4-carboxamide] was tested, and the “LRRK2 pIC50” value was 8.13.

`CN1CCN(CCCn2cc(NC(=O)c3csc(-c4cn[nH]c4)n3)cn2)CC1` [Example 7-34, N-{1-[3-(4-methylpiperazin-1-yl)propyl]-1H-pyrazol-4-yl}-2-(1H-pyrazol-4-yl)-1,3-thiazole-4-carboxamide] was tested, and the “LRRK2 pIC50” value was 5.95.

For `N[C@H]1CC[C@](F)(Cn2cc(NC(=O)c3csc(-c4cn[nH]c4)n3)cn2)CC1` [Example 7-35, N-{1-[(cis-4-amino-1-fluorocyclohexyl)methyl]-1H-pyrazol-4-yl}-2-(1H-pyrazol-4-yl)-1,3-thiazole-4-carboxamide], the “LRRK2 pIC50” value was 6.24.

For `NCC1CCC(F)(Cn2cc(NC(=O)c3csc(-c4cn[nH]c4)n3)cn2)CC1` (centres unmarked) [Example 7-36, N-(1-{[4-(aminomethyl)-1-fluorocyclohexyl]methyl}-1H-pyrazol-4-yl)-2-(1H-pyrazol-4-yl)-1,3-thiazole-4-carboxamide], the “LRRK2 pIC50” value was 7.65.

With `N#CC1CCC(Cn2cc(NC(=O)c3csc(-c4cn[nH]c4)n3)cn2)CC1` (centres unmarked) [Example 7-37, N-{1-[(4-cyanocyclohexyl)methyl]-1H-pyrazol-4-yl}-2-(1H-pyrazol-4-yl)-1,3-thiazole-4-carboxamide] the “LRRK2 pIC50” value was 7.72.

In the case of `O=C(Nc1cnn(CC2CC2)c1)c1csc(-c2cn[nH]c2)n1` [Example 7-38, N-[1-(cyclopropylmethyl)-1H-pyrazol-4-yl]-2-(1H-pyrazol-4-yl)-1,3-thiazole-4-carboxamide], the “LRRK2 pIC50” value is reported as 8.02.

`COc1nn(CC2CC2(F)F)cc1NC(=O)c1csc(-c2cn[nH]c2)n1` (centres unmarked) [Example 7-39, N-{1-[(2,2-difluorocyclopropyl)methyl]-3-methoxy-1H-pyrazol-4-yl}-2-(1H-pyrazol-4-yl)-1,3-thiazole-4-carboxamide] was tested, and the “LRRK2 pIC50” value was 7.74.

`CCOCCn1cc(NC(=O)c2csc(-c3cn[nH]c3)n2)c(C(F)F)n1` [Example 7-40, N-[3-(difluoromethyl)-1-(2-ethoxyethyl)-1H-pyrazol-4-yl]-2-(1H-pyrazol-4-yl)-1,3-thiazole-4-carboxamide] was tested, and the “LRRK2 pIC50” value was 6.97.

In the case of `CC(C)Cn1cc(NC(=O)c2csc(-c3cn[nH]c3)n2)cn1` [Example 7-41, N-[1-(2-methylpropyl)-1H-pyrazol-4-yl]-2-(1H-pyrazol-4-yl)-1,3-thiazole-4-carboxamide], the “LRRK2 pIC50” value is reported as 7.46.

In the case of `CC1(Cn2cc(NC(=O)c3csc(-c4cn[nH]c4)n3)c(C(F)F)n2)COC1` [Example 7-42, N-{3-(difluoromethyl)-1-[(3-methyloxetan-3-yl)methyl]-1H-pyrazol-4-yl}-2-(1H-pyrazol-4-yl)-1,3-thiazole-4-carboxamide], the “LRRK2 pIC50” value is reported as 6.51.

With `O=C(Nc1cnn(CC2C3CCC2CNC3)c1)c1csc(-c2cn[nH]c2)n1` (centres unmarked) [Example 7-43, N-{1-[(3-azabicyclo[3.2.1]octan-8-yl)methyl]-1H-pyrazol-4-yl}-2-(1H-pyrazol-4-yl)-1,3-thiazole-4-carboxamide] the “LRRK2 pIC50” value was 6.87.

In the case of `Cc1cc(-n2cc(NC(=O)c3csc(-c4cn[nH]c4)n3)cn2)ccn1` [Example 8-1, N-(1-(2-Methylpyridin-4-yl)-1H-pyrazol-4-yl)-2-(1H-pyrazol-4-yl)thiazole-4-carboxamide], the “LRRK2 pIC50” value is reported as 7.90.

With `Cc1cnccc1-n1cc(NC(=O)c2csc(-c3cn[nH]c3)n2)cn1` [Example 8-2, N-[1-(3-methylpyridin-4-yl)-1H-pyrazol-4-yl]-2-(1H-pyrazol-4-yl)-1,3-thiazole-4-carboxamide] the “LRRK2 pIC50” value was 7.74.

With `CC(C)c1cc(-n2cc(NC(=O)c3csc(-c4cn[nH]c4)n3)cn2)ccn1` [Example 8-3, N-{1-[2-(1-methylethyl)pyridin-4-yl]-1H-pyrazol-4-yl}-2-(1H-pyrazol-4-yl)-1,3-thiazole-4-carboxamide] the “LRRK2 pIC50” value was 7.89.
